Measurements published in patent US8952176B2, “Heterocyclic compound having type I 11 β hydroxysteroid dehydrogenase inhibitory activity” (Shionogi & Co., Ltd., priority 2005, dated 2015).

Legend:
[1] = biological target: recombinant human 11β-HSD1 (Homo sapiens, UniProt P28845); assay: Enzyme activity assay on human 11β-HSD1 (HTRF cortisol); assay type: biochemical; conditions: recombinant human 11β-HSD1, 5 μM cortisone, 2 hours at 37° C.
Description: Evaluation of 11β-HSD1 Inhibitors (Enzyme Activity Assay on Human 11β-HSD1)
Enzymatic activity for human 11β-HSD1 was determined in a 10 μl final volume of assay mixture containing 50 mM sodium phosphate buffer (pH 7.6), 1 mg/ml bovine serum albumin, 0.42 mg/ml NADPH, 1.26 mg/ml glucose-6-phosphate, glucose-6-phosphate dehydrogenase, test compound, recombinant human 11β-HSD1, and 5 μM cortisone as substrate. The reaction was started with the addition of cortisone. After incubation for 2 hours at 37° C., 5 μl of europium cryptate-labelled anti-cortisol antibody and 5 μl of XL665-labeled cortisol were added. After further incubation for 2 hours at room temperature, the homogeneous time-resolved fluorescence (HTRF) signal was measured. The cortisol production was quantitated by a standard curve generated with several known concentrations of cortisol in each assay.
(§1) The amount of cortisol production without compounds was served as control, and the percent inhibition by test compound at each concentration was calculated. The IC50 value of the compound for 11β-HSD1 was obtained using the inhibition curve generated by plotting the percent inhibition versus the concentration of text compound.

[2] = biological target: recombinant mouse 11β-HSD1 (Mus musculus, UniProt P50172); assay: Enzyme activity assay on mouse 11β-HSD1 (HTRF corticosterone); assay type: biochemical; conditions: recombinant mouse 11β-HSD1, 11-dehydrocorticosterone substrate, 2 hours at 37° C.
recombinant mouse 11β-HSD1, sequence (P50172 whole entry): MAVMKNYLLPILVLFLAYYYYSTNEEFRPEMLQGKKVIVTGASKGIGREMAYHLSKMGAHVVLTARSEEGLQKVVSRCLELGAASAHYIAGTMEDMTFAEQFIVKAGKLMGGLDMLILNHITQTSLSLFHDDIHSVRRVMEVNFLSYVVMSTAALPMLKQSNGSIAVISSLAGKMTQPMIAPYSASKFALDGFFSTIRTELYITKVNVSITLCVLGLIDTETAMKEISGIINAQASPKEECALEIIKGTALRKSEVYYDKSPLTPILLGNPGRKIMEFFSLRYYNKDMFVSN
Description: […] (Enzyme Activity Assay on Mouse 11β-HSD1)
Enzymatic activity for mouse 11β-HSD1 activity was determined in a 10 μl final volume of assay mixture containing 50 mM sodium phosphate buffer (pH 7.6), 1 mg/ml bovine serum albumin, 0.042 mg/ml NADPH, 1.26 mg/ml glucose-6-phosphate, glucose-6-phosphate dehydrogenase, test compound, recombinant mouse 11β-HSD1, and […] 11-dehydrocorticosterone as substrate. The reaction was started with the addition of 11-dehydrocorticosterone. After incubation for 2 hours at 37° C., 5 μl of europium cryptate-labelled anti-cortisol antibody and 5 μl of XL665-labeled cortisol were added. After further incubation for 2 hours at room temperature, the HTFR signal was measured. The corticosterone production was quantitated by a standard curve generated with several known concentrations of corticosterone in each assay.
as §1, with “Corticosterone” for “The amount of cortisol”, “by” for “by test”, “test” for “text”

recombinant human 11β-HSD1, sequence (P28845 whole entry): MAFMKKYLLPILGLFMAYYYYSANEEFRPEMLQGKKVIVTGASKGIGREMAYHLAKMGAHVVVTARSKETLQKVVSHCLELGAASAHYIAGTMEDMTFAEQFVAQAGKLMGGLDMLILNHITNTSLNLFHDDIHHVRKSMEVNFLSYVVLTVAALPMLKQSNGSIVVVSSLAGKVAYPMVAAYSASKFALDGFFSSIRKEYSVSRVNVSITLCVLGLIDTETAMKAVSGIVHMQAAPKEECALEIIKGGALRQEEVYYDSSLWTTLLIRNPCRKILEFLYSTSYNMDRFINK

Compound | IC50 [1] | IC50 [2]
Cc1noc(C(=O)NC23CC4CC(CC(C4)C2)C3)c1Sc1ccccc1 [Compound A-1] | 0.084 µM | 21 µM
Cc1noc(C(=O)NC23CC4CC(CC(C4)C2)C3)c1SC1CCCCC1 [Compound A-12] | 0.08 µM | 6 µM
Cc1noc(C(=O)c2ccccc2)c1SC1CCCCC1 [Compound A-15] | 0.016 µM | 11.6 µM
COc1noc(C(=O)c2ccccc2)c1S(=O)(=O)c1ccccc1 [Compound A-20] | 0.093 µM | 5.9 µM
Cc1noc(C(=O)NC23CC4CC(CC(C4)C2)C3)c1SC1CCCCCC1 [Compound A-21] | 0.015 µM | 21 µM
